Measurements: ChEMBL document CHEMBL6178014, “Discovery and Administration Optimization of Novel Selective CDK9 Inhibitor, 1-7a-B1, for Improved Pharmacokinetics and Antitumor Efficacy In Vivo” (J Med Chem, 2025)
The source made the active and inactive calls. No cut-off for these calls is given here.

Tests used:
HCT-116 [1] = experiment: Antiproliferative activity against human HCT-116 cells assessed as inhibition of cell growth incubated for 48 hrs by CCK8 assay; format: functional
HT-29 = experiment: Antiproliferative activity against human HT-29 cells assessed as inhibition of cell growth incubated for 48 hrs by CCK8 assay; format: functional
CDK2/Cyclin A2 = CDK2/Cyclin A2 (Homo sapiens, UniProt P24941); experiment: Inhibition of CDK2/cyclA2 (unknown origin) by ADP-Glo assay; format: protein-complex assay
HCT-116 [2] = experiment: Downregulation of Mcl-1 mRNA level in human HCT-116 cells at 200 to 400 nM incubated for 48 hrs by qRT-PCR analysis; format: functional, cell-based; settings: dose 200-400 nM
HCT-116 [3] = experiment: Downregulation of c-Myc mRNA level in human HCT-116 cells at 200 to 400 nM incubated for 48 hrs by qRT-PCR analysis; format: functional, cell-based; settings: dose 200-400 nM
HCT-116 [4] = experiment: Downregulation of Bcl-2 mRNA level in human HCT-116 cells at 200 to 400 nM incubated for 48 hrs by qRT-PCR analysis; format: functional, cell-based; settings: dose 200-400 nM
HCT-116 [5] = experiment: Downregulation of c-Myc level in human HCT-116 cells at 200 to 400 nM incubated for 48 hrs by Western blot analysis; format: functional, cell-based; settings: dose 200-400 nM
HCT-116 [6] = experiment: Inhibition of wild type p53/MDM2 protein-protein interaction in human HCT-116 cells at 200 nM incubated for 48 hrs by co-immunoprecipitation (Co-IP) analysis; format: cell-based
HCT-116 [7] = experiment: Upregulation of Bax expression in human HCT-116 cells at 100 to 400 nM incubated for 48 hrs by Western blot analysis; format: functional, cell-based; settings: dose 100-400 nM
HCT-116 [8] = experiment: Induction of cell cycle arrest in human HCT-116 cells assessed as accumulation of cells at S phase incubated for 48 hrs by PI/RNase staining based flow cytometry analysis; format: functional
HCT-116 [9] = experiment: Induction of cell senescence in human HCT-116 cells at 100 to 400 nM incubated for 48 hrs by beta-galactosidase staining based analysis; format: functional; settings: dose 100-400 nM
[10] = Metabolic stability in human liver microsome assessed as half life at 100 uM pre-incubated with compound for 60 mins followed by NADPH addition and measured up to 60 mins by LC-MS/MS analysis; format: ADME; settings: liver microsomes, time < 120 min
CYP2C9 = CYP2C9 (Homo sapiens, UniProt P11712); experiment: Inhibition of CYP2C9 in human liver microsome at 10 uM pre-incubated with compound for 10 mins in presence of NADPH-regenerating system by LC-MS/MS analysis relative to control; format: ADME; settings: liver microsomes
Sequence of CYP2C9 (P11712 whole entry): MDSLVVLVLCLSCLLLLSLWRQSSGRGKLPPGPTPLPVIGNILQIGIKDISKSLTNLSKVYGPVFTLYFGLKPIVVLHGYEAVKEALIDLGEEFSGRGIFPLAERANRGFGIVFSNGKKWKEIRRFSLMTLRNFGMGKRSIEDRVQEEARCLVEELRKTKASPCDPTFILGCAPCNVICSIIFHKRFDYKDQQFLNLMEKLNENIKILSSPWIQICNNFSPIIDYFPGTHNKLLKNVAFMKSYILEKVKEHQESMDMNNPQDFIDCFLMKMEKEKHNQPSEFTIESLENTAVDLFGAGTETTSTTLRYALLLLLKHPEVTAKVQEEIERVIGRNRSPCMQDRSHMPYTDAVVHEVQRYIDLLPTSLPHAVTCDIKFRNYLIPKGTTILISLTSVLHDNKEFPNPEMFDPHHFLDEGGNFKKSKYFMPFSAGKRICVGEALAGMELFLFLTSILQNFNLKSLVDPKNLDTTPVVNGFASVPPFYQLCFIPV

[11] = Metabolic stability in human liver assessed as intrinsic clearance at 100 uM pre-incubated with compound for 60 mins followed by NADPH addition and measured up to 60 mins by LC-MS/MS analysis; format: ADME, tissue-based; settings: read-out: CLH
[12] = Plasma protein binding in human at 100 uM measured up to 120 mins by LC-MS/MS analysis relative to control; format: ADME, cell-free; settings: read-out: PPB (converted)
[13] = Half life in Sprague-Dawley rat at 2 mg/kg, iv measured after 24 hrs by LC-MS/MS analysis; format: ADME, organism-based; settings: in vivo
[14] = MRT (infinity) in Sprague-Dawley rat at 2 mg/kg, iv measured after 24 hrs by LC-MS/MS analysis; format: ADME, organism-based; settings: in vivo
[15] = AUC (0 to t) in Sprague-Dawley rat at 2 mg/kg, iv measured after 24 hrs by LC-MS/MS analysis; format: ADME, organism-based; settings: in vivo
[16] = Clearance in Sprague-Dawley rat at 2 mg/kg, iv measured after 24 hrs by LC-MS/MS analysis; format: ADME, organism-based; settings: in vivo
[17] = Volume of distribution in Sprague-Dawley rat at 2 mg/kg, iv measured after 24 hrs by LC-MS/MS analysis; format: ADME, organism-based; settings: in vivo
[18] = Tmax in Sprague-Dawley rat at 30 mg/kg, po measured after 24 hrs by LC-MS/MS analysis; format: ADME, organism-based; settings: in vivo
[19] = MRT (infinity) in Sprague-Dawley rat at 30 mg/kg, po measured after 24 hrs by LC-MS/MS analysis; format: ADME, organism-based; settings: in vivo
[20] = AUC (0 to t) in Sprague-Dawley rat at 30 mg/kg, po measured after 24 hrs by LC-MS/MS analysis; format: ADME, organism-based; settings: in vivo
[21] = Volume of distribution in Sprague-Dawley rat at 30 mg/kg, po measured after 24 hrs by LC-MS/MS analysis; format: ADME, organism-based; settings: in vivo
[22] = Oral bioavailability in Sprague-Dawley rat at 30 mg/kg measured after 24 hrs by LC-MS/MS analysis; format: ADME, organism-based; settings: in vivo
HCT-116 [23] = experiment: Antitumor activity against human HCT-116 cells xenografted in female BALB/c nu-nu mouse assessed as tumor growth inhibition at 40 mg/kg, po administered once daily for 3 weeks by vernier caliper analysis; format: functional, organism-based
Mus musculus = experiment: In vivo inhibition of CDK9/cyclinT1 in female BALB/c nu-nu mouse xenografted with human HCT-116 cells assessed as inhibition of phosphorylation of RNA polymerase II at Ser 2 residue at 40 mg/kg, po incubated for 48 hrs by Western blot analysis; format: functional, organism-based
HCT-116 [24] = experiment: Antitumor activity against human HCT-116 cells xenografted in female BALB/c nu-nu mouse assessed as increase in caspase-3 cleavage at 40 mg/kg, po incubated for 48 hrs by Western blot analysis; format: functional, organism-based
HCT-116 [25] = experiment: Antitumor activity against human HCT-116 cells xenografted in female BALB/c nu-nu mouse assessed as increase in PARP cleavage at 40 mg/kg, po incubated for 48 hrs by Western blot analysis; format: functional, organism-based
[26] = Toxicity in female BALB/c nu-nu mouse xenografted with human HCT-116 cells assessed as histopathological changes in heart at 40 mg/kg, po administered once daily for 3 weeks by H and E staining based analysis; format: organism-based; settings: in vivo, 504 h
[27] = Toxicity in female BALB/c nu-nu mouse xenografted with human HCT-116 cells assessed as histopathological changes in spleen at 40 mg/kg, po administered once daily for 3 weeks by H and E staining based analysis; format: organism-based; settings: in vivo, 504 h
[28] = Toxicity in female BALB/c nu-nu mouse xenografted with human HCT-116 cells assessed as histopathological changes in lung at 20 mg/kg, po as submicron emulsion administered once daily for 3 weeks by H and E staining based analysis; format: organism-based; settings: in vivo, 504 h
HCT-116 [29] = experiment: Antitumor activity against human HCT-116 cells xenografted in female BALB/c nu-nu mouse assessed as downregulation of Mcl-1 mRNA expression at 40 mg/kg, po incubated for 48 hrs by qRT-PCR analysis; format: functional, organism-based
HCT-116 [30] = experiment: Antitumor activity against human HCT-116 cells xenografted in female BALB/c nu-nu mouse assessed as downregulation of c-Myc mRNA expression at 40 mg/kg, po incubated for 48 hrs by qRT-PCR analysis; format: functional, organism-based
HCT-116 [31] = experiment: Antitumor activity against human HCT-116 cells xenografted in female BALB/c nu-nu mouse assessed as reduction in Ki67 positive cells at 40 mg/kg, po by staining based analysis; format: functional, organism-based
HCT-116 [32] = experiment: Antitumor activity against human HCT-116 cells xenografted in female BALB/c nu-nu mouse assessed as reduction in Ki67 positive cells at 20 mg/kg, po as submicron emulsion by staining based analysis; format: functional, organism-based

Compound `CC(C)Oc1cc(F)ccc1-c1ccnc(NC(=O)Nc2cccc(C(=O)N3CCN(C)CC3)c2)c1` has a GI50 (HCT-116 [1]) of 150 nM, a GI50 (HT-29) of 190 nM and an IC50 (CDK2/Cyclin A2) of 1180 nM. The Activity (HCT-116 [2]) was “Active”, the Activity (HCT-116 [3]) was “Active” and the Activity (HCT-116 [4]) was “Active”. The Activity (HCT-116 [5]) was “Active”, the inhibition (HCT-116 [6]) was “Active” and the Activity (HCT-116 [7]) was “Active”. For the same compound, the Activity (HCT-116 [8]) was “Active”, the Activity (HCT-116 [9]) was “Active” and the half-life at 100 µM [10] was 3.9 min. The inhibition at 10 µM (CYP2C9) was 15.9%, the CLint scaled at 100 µM [11] was 317 mL/min/kg and the fraction unbound at 2 h, 100 µM [12] was 0.006. For the same compound, the half-life [13] was 17.6 min, the MRT inf [14] was 20.1 min and the AUC(0-t) at 24 h [15] was 403 ng·h/mL. For the same compound, the clearance [16] was 81.8 mL/min/kg, the Vd [17] was 1.65 L/kg and the Tmax [18] was 15 min. For the same compound, the MRT inf [19] was 87 min, the AUC(0-t) at 24 h [20] was 897 ng·h/mL and the Vd [21] was 5.54 L/kg. The bioavailability [22] was 14.7%, the Activity (HCT-116 [23]) was “Active” and the inhibition (Mus musculus) was “Active”. For the same compound, the Activity (HCT-116 [24]) was “Active”, the Activity (HCT-116 [25]) was “Active” and the Activity [26] was “Non-toxic”. For the same compound, the Activity [27] was “Non-toxic”, the Activity [28] was “Non-toxic” and the Activity (HCT-116 [29]) was “Active”. The Activity (HCT-116 [30]) was “Active”, the Activity (HCT-116 [31]) was “Active” and the Activity (HCT-116 [32]) was “Active”.
